Assay results published in ChEMBL document CHEMBL6178021, “Optimization of Tambjamines Active against Multiple Stages of Malaria Parasites” (J Med Chem, 2025).
In brackets after ≈: the same amount, converted by molar mass.

How the values were obtained:
[1] = tested on: Plasmodium falciparum; assay: Antiplasmodial activity against asexual blood-stage Plasmodium falciparum Tm90-C2B using 2% haematocrit and 0.2% parasitemia assessed as reduction in fluorescence measured after 72 hrs by Malaria SYBR Green I-based Fluorescence (MSF) assay; format: functional, organism-based
[2] = tested on: MDR1 (human); assay: Apparent permeability across basolateral to apical side in MDCK transfected with human MDR1 cells incubated for 1 hr by LC-MS analysis; details: dog, MDCK-MDR1
[3] = Metabolic stability in mouse liver microsomes assessed as half life measured up to 60 mins by LC/MS analysis; format: ADME, Microsome
[4] = Solubility of the compound in potassium phosphate buffer at pH 7.4 by UV-vis spectroscopy; details: buffer
[5] = tested on: Plasmodium yoelii; assay: Antimalarial activity against erythrocytic Plasmodium yoelii MRA-428 infected in CF1 mouse assessed as reduction in parasitemia at 25 mg/kg, po once daily for 4 days measured on day 5; format: functional; parameters: scale not given: the % may be the effect or the level left; details: time 4 day
[6] = tested on: MDR1 (human); assay: Apparent permeability across apical to basolateral side in MDCK transfected with human MDR1 cells incubated for 1 hr by LC-MS analysis; details: dog, MDCK-MDR1
[7] = Metabolic stability in human liver microsomes assessed as half life measured up to 60 mins by LC/MS analysis; format: ADME, Microsome
[8] = tested on: Plasmodium yoelii; assay: Antimalarial activity against erythrocytic Plasmodium yoelii MRA-428 infected in CF1 mouse assessed as reduction in parasitemia at 10 mg/kg, po once daily for 4 days measured on day 5; format: functional; parameters: scale not given: the % may be the effect or the level left; details: time 4 day
[9] = tested on: Plasmodium yoelii; assay: Antimalarial activity against erythrocytic Plasmodium yoelii MRA-428 infected in CF1 mouse assessed as cured mouse at 25 mg/kg, po once daily for 4 days measured on day 28 day; format: functional, organism-based; details: time 4.0 day
[10] = tested on: Plasmodium yoelii; assay: Antimalarial activity against erythrocytic Plasmodium yoelii MRA-428 infected in CF1 mouse assessed as reduction in parasitemia at 50 mg/kg, po once daily for 4 days measured on day 5; format: functional; parameters: scale not given: the % may be the effect or the level left; details: time 4 day
[11] = in vitro; details: human, liver microsomes
[12] = in vitro; details: human
Description: Selectivity index, ratio of IC50 for cytotoxicity against human HepG2 cells to IC50 for antiplasmodial activity against asexual blood-stage Plasmodium falciparum D6

[13] = tested on: MDR1 (human); assay: Efflux ratio, ratio of apparent permeability across apical to basolateral side over basolateral to apical side in MDCK transfected with human MDR1 cells incubated for 1 hr by LC-MS analysis; details: dog
[14] = tested on: HepG2; assay: Cytotoxicity against human HepG2 cells assessed as cell viability measured after 48 hrs by MTT assay; format: toxicity, cell-based; details: hepg2
[15] = in vitro; details: mouse, liver microsomes
[16] = tested on: Plasmodium falciparum; assay: microbe, parasite or virus in culture; details: Dd2, 72 h
Description: Antiplasmodial activity against asexual blood-stage Plasmodium falciparum Dd2 using 2% haematocrit and 0.2% parasitemia assessed as reduction in fluorescence measured after 72 hrs by Malaria SYBR Green I-based Fluorescence (MSF) assay

[17] = tested on: Plasmodium yoelii; assay: Antimalarial activity against erythrocytic Plasmodium yoelii MRA-428 infected in CF1 mouse assessed as cured mouse at 50 mg/kg, po once daily for 4 days measured on day 28 day; format: functional, organism-based; details: time 4.0 day
[18] = tested on: Plasmodium falciparum; assay: microbe, parasite or virus in culture; details: D6, 72 h
Description: Antiplasmodial activity against asexual blood-stage Plasmodium falciparum D6 using 2% haematocrit and 0.2% parasitemia assessed as reduction in fluorescence measured after 72 hrs by Malaria SYBR Green I-based Fluorescence (MSF) assay

[19] = tested on: Plasmodium yoelii; assay: Antimalarial activity against erythrocytic Plasmodium yoelii MRA-428 infected in CF1 mouse assessed as reduction in parasitemia at 80 mg/kg, po once daily for 4 days measured on day 5; format: functional; parameters: scale not given: the % may be the effect or the level left; details: time 4 day
[20] = tested on: Plasmodium yoelii; assay: Antimalarial activity against erythrocytic Plasmodium yoelii MRA-428 infected in CF1 mouse assessed as cured mouse at 80 mg/kg, po once daily for 4 days measured on day 28 day; format: functional, organism-based; details: time 4.0 day

COC1=C(OC)/C(=C/NC23C[C@H]4C[C@@H](C2)C[C@@H](C3)C4)N=C1c1ccc[nH]1
IC50 [1]: 4.46 nM
Papp B→A at 1 h [2]: 0.025 ×10⁻⁶ cm/s
half-life [3]: 43.2 min
solubility [4]: 167 µM (≈ 59 µg/mL)
Activity [5]: 100%
Papp A→B at 1 h [6]: 0.27 ×10⁻⁶ cm/s
half-life [7]: 17.6 min
Activity [8]: 63.1%
Activity [9]: Not active; One Mouse Cured Out Of Four
Activity [10]: 100%
microsomal CLint at 1 h [11]: 78.7 µL/min/mg
selectivity ratio [12]: 789
efflux ratio at 1 h [13]: 0.093
IC50 [14]: 4660 nM
microsomal CLint at 1 h [15]: 32.1 µL/min/mg
IC50 [16]: 5.96 nM
Activity [17]: Not active; None Of The Mouse Cured Out Of Four Tested

CCC1=C(CC)/C(=C/NC23C[C@H]4C[C@@H](C2)C[C@@H](C3)C4)N=C1c1ccc(CC)[nH]1
IC50 [1]: 0.984 nM
Papp B→A at 1 h [2]: 22 ×10⁻⁶ cm/s
half-life [3]: 50.3 min
solubility [4]: 10.3 µM (≈ 3.89 µg/mL)
Activity [5]: 100%
Papp A→B at 1 h [6]: 31 ×10⁻⁶ cm/s
half-life [7]: > 60 min
Activity [8]: 53%
Activity [9]: Not active; None Of The Mouse Cured Out Of Four Tested
Activity [10]: 100%
microsomal CLint at 1 h [11]: 18.5 µL/min/mg
selectivity ratio [12]: 1580
IC50 [18]: 0.95 nM
efflux ratio at 1 h [13]: 0.71
IC50 [14]: 1500 nM
microsomal CLint at 1 h [15]: 27.5 µL/min/mg
IC50 [16]: 1.16 nM
Activity [17]: Not active; None Of The Mouse Cured Out Of Four Tested

CCc1ccc(C2=N/C(=C\NC3CCCCCC3)C(C)=C2C)[nH]1
IC50 [1]: 1.55 nM
Papp B→A at 1 h [2]: 0.035 ×10⁻⁶ cm/s
half-life [3]: > 60 min
solubility [4]: 93.1 µM (≈ 29 µg/mL)
Activity [5]: 94.1%
Activity [19]: 100%
half-life [7]: > 60 min
Activity [8]: 42.8%
Activity [10]: 100%
microsomal CLint at 1 h [11]: 6.78 µL/min/mg
Activity [20]: Not active; None Of The Mouse Cured Out Of Four Tested
IC50 [18]: 2.1 nM
microsomal CLint at 1 h [15]: 4.36 µL/min/mg
IC50 [16]: 1.32 nM

CCC1=C(CC)/C(=C/NC2CCCCCCC2)N=C1c1ccc(C)[nH]1
IC50 [1]: 4.95 nM
Papp B→A at 1 h [2]: 0.066 ×10⁻⁶ cm/s
half-life [3]: > 60 min
solubility [4]: < 3.125 µM
Activity [5]: 100%
Activity [19]: 100%
Papp A→B at 1 h [6]: 0.006 ×10⁻⁶ cm/s
half-life [7]: > 60 min
Activity [8]: 68.5%
Activity [9]: Active; Four Mouse Cured Out Of Four
microsomal CLint at 1 h [11]: 20.6 µL/min/mg
Activity [20]: Not active; None Of The Mouse Cured Out Of Four Tested
IC50 [18]: 10.6 nM
IC50 [14]: 3190 nM
microsomal CLint at 1 h [15]: 16.8 µL/min/mg
IC50 [16]: 5.75 nM

CCC1=C(C)/C(=C/NC2CCCCCC2)N=C1c1ccc(C)[nH]1
IC50 [1]: 23.4 nM
half-life [3]: > 60 min
solubility [4]: 25.7 µM (≈ 8 µg/mL)
Activity [5]: 100%
Activity [19]: 100%
half-life [7]: 48.9 min
Activity [8]: 55.3%
Activity [9]: Not active; None Of The Mouse Cured Out Of Four Tested
Activity [10]: 100%
microsomal CLint at 1 h [11]: 28.3 µL/min/mg
Activity [20]: Active; Three Mouse Cured Out Of Four
IC50 [18]: 29.5 nM
IC50 [14]: 6120 nM
microsomal CLint at 1 h [15]: 8.16 µL/min/mg
IC50 [16]: 18.6 nM
Activity [17]: Not active; None Of The Mouse Cured Out Of Four Tested

CCc1ccc(C2=N/C(=C\NC3CCCCC3)C3=C2CCCC3)[nH]1
IC50 [1]: 1.41 nM
Papp B→A at 1 h [2]: 0.22 ×10⁻⁶ cm/s
half-life [3]: > 60 min
solubility [4]: 19.5 µM (≈ 6.31 µg/mL)
Activity [5]: 100%
Activity [19]: 100%
Papp A→B at 1 h [6]: 0.007 ×10⁻⁶ cm/s
half-life [7]: > 60 min
Activity [8]: 43.1%
Activity [9]: Not active; None Of The Mouse Cured Out Of Four Tested
Activity [10]: 100%
microsomal CLint at 1 h [11]: 6.93 µL/min/mg
Activity [20]: Not active; None Of The Mouse Cured Out Of Four Tested
IC50 [18]: 3.5 nM
IC50 [14]: 1190 nM
microsomal CLint at 1 h [15]: 5.71 µL/min/mg
IC50 [16]: 1.4 nM
Activity [17]: Not active; None Of The Mouse Cured Out Of Four Tested
